This note sets out measurements from patent US20230150984A1, “NICOTINAMIDE MONONUCLEOTIDE AND NICOTINAMIDE RIBOSIDE DERIVATIVES AND USE THEREOF IN THE TREATMENT OF VIRAL INFECTIONS AND RESPIRATORY COMPLICATIONS, IN […] BY INFL[…] CORONAVIRUS” (NUVAMID SA, priority 2020, published 2023).

The subject of experiment [1] is Influenza virus H1N1 PR/8/34. Nature of the experiment: Murine influenza virus H1N1 PR/8/34 pulmonary infection, lethal dose (Example 2). The conditions noted are these: for body weight evolution D0 to D14 in comparison to vehicle / clinical score / clinical states of the mice D0 to D14: 500 PFU H1N1, I-A 185 mg/kg i.p., Tamiflu 1 mg/kg oral twice a day; for viral load in lung: 8 days after infection with 500 PFU of influenza A virus, vs vehicle group; for survival rate at D14: mice infected intranasally with 500 PFU H1N1 PR/8/34, Tamiflu 1 mg/kg oral gavage twice a day, D0-D14. It is filed as in vivo, mice.

A further experiment relates to H1N1. Nature of the experiment: NMN and NR on influenza virus pulmonary infection in mice (Example 7). Format: in vivo. To be noted: H1N1 infected mice; for Remaining mice, Day 11 / Remaining mice, Day 14: 12 per group, loss of 25% or more bodyweight counted as dead; for Remaining mice, Day 11 / Remaining mice, Day 14 / survival rate at the end of the experiment: I-A or I-G 185 mg/kg i.p. daily, Tamiflu 2x1 mg/kg oral; for body weight loss in comparison to vehicle: I-A or I-G 185 mg/kg, Tamiflu 2 mg/kg, D0 to D14. Here is the method:
The compounds I-A and I-G were delivered by intraperitoneal route at 185 mg/kg daily during all the experiment. 72 mice were daily weighed to adapt the volume of compounds. Physiological buffer was used as control and was administrated by i.p once per day during all the experiment. Control animals were orally administrated with Tamiflu at 2 mg/kg during all the experiment. Each animal has been infected with H1N1. The experimental groups are as follows: • vehicle: H1N1 infection+physiological buffer • Tamiflu: H1N1 infection+Tamiflu (2×1 mg/kg) • Compound I-A: H1N1 infection+NMN (185 mg/kg) • Compound I-G: H1N1 infection+NR (185 mg/kg) • Tamiflu+Compound I-A: H1N1 infection+Tamiflu (2×1 mg/kg)+Compound I-A (185 mg/kg) • Tamiflu+Compound I-G: H1N1 infection+Tamiflu (2×1 mg/kg)+Compound I-G (185 mg/kg)
Survival rates, body weight and clinical scores were monitored during all the experiment.
Survival rates (FIG. 7): Animals which lost 25% or more bodyweight, were euthanized for ethical reasons and considered as dead. Survival rates were monitored during all the experiment. […]
Respiratory scoring (FIG. 10): the respiratory scoring was assessed according to the following criteria: […]

For experiment [2], the system named is Influenza virus H1N1 PR/8/34 strain. Put plainly: Compound I-A dose-response on influenza virus pulmonary infection (Example 8). Format: in vivo, mice. To be noted: for Remaining mice, Day 10 / Remaining mice, Day 14: 500 PFU H1N1 PR/8/34, 12 mice; for viral load in lung: 8 days after infection with 500 PFU of influenza A virus. Here is the method:
The model consists in intranasal administration of 500 PFU of Influenza virus H1N1 PR/8/34 strain to induce pneumonia. Compound I-A was delivered by intraperitoneal (i.p.) route at 90, 185 or 500 mg/kg immediately after infection and then daily during all the experiment. Mice were daily weighed to adapt the volume of compounds. Physiological buffer was used as control and was administrated by i.p once per day during all the experiment. Each experimental group comprises 22 mice: 12 mice for the survival study, 5 mice of the flow cytometry analysis and 5 mice for the assessment of viral load.
The experimental groups are the following: • Group 1: Vehicle (i.p.) • Group 2: Compound I-A 90 mg/kg • Group 3: Compound I-A 185 mg/kg • Group 4: Compound I-A 500 mg/kg
At day 8, 5 mice per group are use to measure the following parameters. • Blood collection: 3 aliquots (a, b and c) a)+ac. perchlorique (NAD dosage) b) immune cell characterization (cytometry) c) remaining plasma->freezing • Lung and lymph nodes collection, cell preparation, counting and immune cell characterization (cytometry) • Remaining cells (if any) from the 2 tissues treated for RNAseq • Viral load in the lungs (5 mice per group)
Survival rates, body weight, clinical scores, viral load in lungs and quantification of subsets of immune population in lung, blood and draining lymph node at day 8 post-infection by flow cytometry were monitored during all the experiment.
Survival (FIG. 11): Animals which lost 25% or more bodyweight, were euthanized for ethical reasons and considered as dead. Survival rates were monitored during all the experiment. […]

Where [3] appears, read: I-A 90, 185 or 500 mg/kg i.p. daily.

Entries after “also recorded” stand apart in the source; their conditions may differ.

With `NC(=O)c1ccc[n+]([C@@H]2O[C@H](COP(=O)(O)O)[C@@H](O)[C@H]2O)c1` [Compound I-A, Nicotinamide mononucleotide], in experiment [1], the “body weight evolution D0 to D14 in comparison to vehicle” value is listed as “slight improvement”, the “clinical score / clinical states of the mice D0 to D14” value is “significantly improved clinical states” and the “viral load in lung” value was “no impact”. For the same compound, in experiment [1] (D8, cytometry on blood), the “H1N1 induced lymphopenia in blood (T cells levels)” value is reported as “reduced H1N1 induced lymphopenia”. Also, the “recruitment of monocyte-derived macrophages and dendritic cells and CD8+ T cells in infected lungs” value in experiment [1] (D8 post-inoculation, cytometry on lung) is listed as “reduced the recruitment”. In addition, in experiment [1] (D8 post-inoculation, in comparison to vehicle and oseltamivir-treated animals), the circulating monocytes entry is “decreased circulating monocytes”. In experiment [1] (I-A 185 mg/kg i.p. once a day, compared to untreated control animals or oseltamivir, 185 mg/kg), the “animal mortality / efficacy on survival” value is “reduce animal mortality; also recorded: more effective than oseltamivir”. Moreover, the “survival rate at D14” value in experiment [1] (I-A 185 mg/kg i.p. once a day) stood at 67%. Besides, in the experiment with H1N1, the “Remaining mice, Day 11” value was 7/12; the “Remaining mice, Day 14” value is 7/12; the “survival rate at the end of the experiment” value (“survival rate at the end” for short) amounted to 58%; the “body weight loss in comparison to vehicle” value (“body weight loss” for short) was “decrease the body weight loss”. In experiment [2] (I-A 90 mg/kg i.p. daily), the mice survival rate came to 33%; the “Remaining mice, Day 10” value is 8/12; the “Remaining mice, Day 14” value is 4/12. The “viral load in lung” value in experiment [2] (I-A 90 mg/kg) was “no significative impact”. Moreover, in experiment [2] (I-A 185 mg/kg i.p. daily), the mice survival rate was 58%; the “Remaining mice, Day 10” value is given as 12/12; the “Remaining mice, Day 14” value was 7/12. In addition, in experiment [2] (I-A 185 mg/kg), the “viral load in lung” value is recorded as “no significative impact”. Besides, in experiment [2] (I-A 500 mg/kg i.p. daily), the mice survival rate came out at 75%; the “Remaining mice, Day 10” value is 10/12; the “Remaining mice, Day 14” value is recorded as 9/12. Moreover, the “viral load in lung (quantity of H1N1 particles)” value in experiment [2] (I-A 500 mg/kg, 8 days after infection, in comparison to the vehicle group) was “significantly reduced the quantity of H1N1 particles”. Also, in experiment [2] (setting [3]), the “body weight in comparison to vehicle (D3-D8)” value was “weak improvement” and the “clinical scores / clinical states of the mice compared to vehicle group” value is given as “improved clinical states”. In experiment [2] (lung, day 8, flow cytometry), the “modulation of the recruitment of monocyte derived macrophages” value was “not observed”, the “number of CD11b+DC” value is “tended to be reduced” and the “proportion of CD206+ macrophages” value is “increased”. Further, the “destruction of alveolar macrophages due to the infection” value in experiment [2] (lung, day 8, flow cytometry, effect did not seem dose dependent) was “reduced”.
Regarding `CCOC(=O)C1=C[C@@H](OC(CC)CC)[C@H](NC(C)=O)[C@@H](N)C1` [Tamiflu, oseltamivir, reference compound], in experiment [1], the “body weight evolution D0 to D14 in comparison to vehicle” value is “slight improvement”, the “clinical score / clinical states of the mice D0 to D14” value is given as “significantly improved clinical states” and the “viral load in lung” value is “no impact”. Further, the “survival rate at D14” value in experiment [1] (I-A 185 mg/kg i.p. once a day) was 58%. In the experiment on H1N1, the “Remaining mice, Day 11” value is listed as 8/12; the “Remaining mice, Day 14” value was 6/12; the “survival rate at the end” value is listed as 50%; the “body weight loss” value is “decrease the body weight loss”.
Turning to `NC(=O)c1ccc[n+]([C@@H]2O[C@H](CO)[C@@H](O)[C@H]2O)c1` [Compound I-G, NICOTINAMIDE RIBOSIDE], in the experiment on H1N1, the “Remaining mice, Day 11” value is listed as 6/12; the “Remaining mice, Day 14” value was 6/12; the “survival rate at the end” value is on record as 50%; the “body weight loss” value is “decrease the body weight loss”.
